Experimental data: ChEMBL document CHEMBL3351946, “Design and synthesis of potent antitumor water-soluble phenyl N-mustard-benzenealkylamide conjugates via a bioisostere approach” (Eur J Med Chem, 2014)

What was measured:
CCRF-CEM [1] = assay: Cytotoxicity against human CCRF-CEM cells assessed as growth inhibition after 72 hrs by Alamar Blue assay; format: functional, cell-based
[2] = Cytotoxicity against human PC3 cells assessed as growth inhibition after 72 hrs by Alamar Blue assay; format: functional, cell-based; conditions: PC-3, 72 h
CCRF-CEM [3] = assay: Cytotoxicity against vinblastine-resistant human CCRF-CEM cells assessed as growth inhibition after 72 hrs by Alamar Blue assay; format: functional, cell-based
[4] = Cytotoxicity against human H1299 cells assessed as growth inhibition after 72 hrs by Alamar Blue assay; format: functional, cell-based; conditions: NCI-H1299, 72 h
CCRF-CEM [5] = assay: Resistance factor, ratio of IC50 for vinblastine-resistant human CCRF-CEM cells to IC50 for human CCRF-CEM cells; format: functional
[6] = Cytotoxicity against human H460 cells assessed as growth inhibition after 72 hrs by Alamar Blue assay; format: functional, cell-based; conditions: NCI-H460, 72 h
[7] = Cytotoxicity against human HCT116 cells assessed as growth inhibition after 72 hrs by Alamar Blue assay; format: functional, cell-based; conditions: HCT-116, 72 h

For `CN(C)CCC(=O)Nc1cccc(NC(=O)Nc2ccc(N(CCCl)CCCl)cc2)c1`, the IC50 (CCRF-CEM [1]) was 0.52 µM, the IC50 [2] was 13.5 µM and the IC50 (CCRF-CEM [3]) was 14.4 µM. For the same molecule, the IC50 [4] was 8.99 µM, the “Ratio IC50” value (CCRF-CEM [5]) was 27.67 and the IC50 [6] was 16.8 µM. It also gave an IC50 [7] of 3.28 µM.

`O=C(Nc1ccc(C(=O)NCCN2CCCCC2)cc1)Nc1ccc(N(CCCl)CCCl)cc1` showed an IC50 (CCRF-CEM [1]) of 0.43 µM, an IC50 [2] of 4.25 µM and an IC50 (CCRF-CEM [3]) of 48.8 µM. The IC50 [4] was 7.58 µM, the “Ratio IC50” value (CCRF-CEM [5]) was 113.58 and the IC50 [6] was 9.44 µM. The IC50 [7] was 5.25 µM.

With `O=C(CN1CCCCC1)Nc1cccc(NC(=O)Nc2ccc(N(CCCl)CCCl)cc2)c1` the IC50 (CCRF-CEM [1]) was 1.35 µM, the IC50 [2] was 10.1 µM and the IC50 (CCRF-CEM [3]) was 1.33 µM. The IC50 [4] was 8.55 µM, the “Ratio IC50” value (CCRF-CEM [5]) was 0.99 and the IC50 [6] was 5.62 µM. For the same molecule, the IC50 [7] was 7.5 µM.

For `CC[C@]1(O)C[C@@H]2CN(CCc3c([nH]c4ccccc34)[C@@](C(=O)OC)(c3cc4c(cc3OC)N(C)[C@H]3[C@@](O)(C(=O)OC)[C@H](OC(C)=O)[C@]5(CC)C=CCN6CC[C@]43[C@@H]65)C2)C1` [VINBLASTINE], the IC50 (CCRF-CEM [1]) was 0.0013 µM and the IC50 (CCRF-CEM [3]) was 0.67 µM.

In the case of `CN(C)CCNC(=O)c1ccc(NC(=O)Nc2ccc(N(CCCl)CCCl)cc2)cc1`, the IC50 (CCRF-CEM [1]) is reported as 0.57 µM, the IC50 [2] is reported as 6.25 µM and the IC50 (CCRF-CEM [3]) is reported as 106 µM. The IC50 [4] was 32 µM, the “Ratio IC50” value (CCRF-CEM [5]) was 186.47 and the IC50 [6] was 31.6 µM. The IC50 [7] was 5.64 µM.

In the case of `O=C(CN1CCCC1)Nc1cccc(NC(=O)Nc2ccc(N(CCCl)CCCl)cc2)c1`, the IC50 (CCRF-CEM [1]) is reported as 3.41 µM, the IC50 [2] is reported as 12.8 µM and the IC50 (CCRF-CEM [3]) is reported as 0.97 µM. The IC50 [4] was 9.36 µM, the “Ratio IC50” value (CCRF-CEM [5]) was 0.28 and the IC50 [6] was 6.55 µM. The IC50 [7] was 5.41 µM.

For `CCN(CC)CCC(=O)Nc1cccc(NC(=O)Nc2ccc(N(CCCl)CCCl)cc2)c1`, the IC50 (CCRF-CEM [1]) was 0.86 µM, the IC50 [2] was 13 µM and the IC50 (CCRF-CEM [3]) was 13 µM. For the same molecule, the IC50 [4] was 5.77 µM, the “Ratio IC50” value (CCRF-CEM [5]) was 15.62 and the IC50 [6] was 6.79 µM. It also gave an IC50 [7] of 3.21 µM.

Work on `O=C(CCN1CCCCC1)Nc1cccc(NC(=O)Nc2ccc(N(CCCl)CCCl)cc2)c1` yielded an IC50 (CCRF-CEM [1]) of 0.39 µM, an IC50 [2] of 5.73 µM and an IC50 (CCRF-CEM [3]) of 6.01 µM. For the same molecule, the IC50 [4] was 4.63 µM, the “Ratio IC50” value (CCRF-CEM [5]) was 15.41 and the IC50 [6] was 7.88 µM. The IC50 [7] was 3.51 µM.

With `O=C(Nc1ccc(N(CCCl)CCCl)cc1)Nc1cccc(C(=O)NCCN2CCCCC2)c1` the IC50 (CCRF-CEM [1]) was 0.57 µM, the IC50 [2] was 4.54 µM and the IC50 (CCRF-CEM [3]) was 28.4 µM. For the same molecule, the IC50 [4] was 10.3 µM, the “Ratio IC50” value (CCRF-CEM [5]) was 49.91 and the IC50 [6] was 12.8 µM. For the same molecule, the IC50 [7] was 5.47 µM.

In the case of `CC[C@]1(O)C[C@H]2CN(CCc3c([nH]c4ccccc34)[C@@](C(=O)OC)(c3cc4c(cc3OC)N(C=O)[C@H]3[C@@](O)(C(=O)OC)[C@H](OC(C)=O)[C@]5(CC)C=CCN6CC[C@]43[C@@H]65)C2)C1` [VINCRISTINE], the IC50 (CCRF-CEM [1]) is reported as 0.00232 µM and the IC50 (CCRF-CEM [3]) is reported as 2.13 µM.

`CN(C)CC(=O)Nc1cccc(NC(=O)Nc2ccc(N(CCCl)CCCl)cc2)c1` showed an IC50 (CCRF-CEM [1]) of 0.78 µM, an IC50 [2] of 19 µM and an IC50 (CCRF-CEM [3]) of 2.7 µM. The IC50 [4] was 10.6 µM, the “Ratio IC50” value (CCRF-CEM [5]) was 3.46 and the IC50 [6] was 8.74 µM. For the same molecule, the IC50 [7] was 9.56 µM.

Molecule `O=C(CN1CCOCC1)Nc1ccc(NC(=O)Nc2ccc(N(CCCl)CCCl)cc2)cc1` has an IC50 (CCRF-CEM [1]) of 1.13 µM, an IC50 [2] of 16 µM and an IC50 (CCRF-CEM [3]) of 18.4 µM. The IC50 [4] was 18.6 µM, the “Ratio IC50” value (CCRF-CEM [5]) was 16.27 and the IC50 [6] was 4.74 µM. For the same molecule, the IC50 [7] was 6.67 µM.

`CCN(CC)CC(=O)Nc1cccc(NC(=O)Nc2ccc(N(CCCl)CCCl)cc2)c1` showed an IC50 (CCRF-CEM [1]) of 2.01 µM, an IC50 [2] of 13 µM and an IC50 (CCRF-CEM [3]) of 1.38 µM. The IC50 [4] was 11.7 µM, the “Ratio IC50” value (CCRF-CEM [5]) was 0.69 and the IC50 [6] was 5.67 µM. It also gave an IC50 [7] of 4.62 µM.

`O=C(CN1CCOCC1)Nc1cccc(NC(=O)Nc2ccc(N(CCCl)CCCl)cc2)c1` showed an IC50 (CCRF-CEM [1]) of 3.87 µM, an IC50 [2] of 35.8 µM and an IC50 (CCRF-CEM [3]) of 1.32 µM. The IC50 [4] was 26.4 µM, the “Ratio IC50” value (CCRF-CEM [5]) was 0.34 and the IC50 [6] was 19.5 µM. For the same molecule, the IC50 [7] was 13 µM.

`O=C(CCN1CCC(N2CCCCC2)CC1)Nc1ccc(NC(=O)Nc2ccc(N(CCCl)CCCl)cc2)cc1` gave an IC50 (CCRF-CEM [1]) of 0.72 µM, an IC50 [2] of 30 µM and an IC50 (CCRF-CEM [3]) of 120 µM. The IC50 [4] was 36 µM, the “Ratio IC50” value (CCRF-CEM [5]) was 166.17 and the IC50 [6] was 14.5 µM. It also gave an IC50 [7] of 11.1 µM.
